Source: article PMC12155096 (International Journal of Molecular Sciences, 2025)
Like-named read-outs stand apart in the source and are kept apart here.

Columns and labels:
human CYP1A2 [1] = biological target: T1, human CYP1A2 (Homo sapiens, UniProt P05177); details: human
T1 sequence (P05177 1-516): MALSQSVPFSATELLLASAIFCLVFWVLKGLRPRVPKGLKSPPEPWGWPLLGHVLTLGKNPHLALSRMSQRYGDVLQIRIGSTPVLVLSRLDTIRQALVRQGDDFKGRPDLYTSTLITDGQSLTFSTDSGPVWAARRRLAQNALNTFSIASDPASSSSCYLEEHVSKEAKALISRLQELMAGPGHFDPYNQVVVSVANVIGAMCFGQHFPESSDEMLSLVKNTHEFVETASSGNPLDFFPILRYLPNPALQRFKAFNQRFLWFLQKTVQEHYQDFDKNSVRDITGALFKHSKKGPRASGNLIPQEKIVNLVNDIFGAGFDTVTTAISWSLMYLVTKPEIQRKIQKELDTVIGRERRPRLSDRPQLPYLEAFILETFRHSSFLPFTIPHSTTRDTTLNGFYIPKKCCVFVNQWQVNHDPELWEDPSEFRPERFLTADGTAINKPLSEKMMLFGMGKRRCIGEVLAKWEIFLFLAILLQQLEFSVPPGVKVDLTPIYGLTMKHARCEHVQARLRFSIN

human CYP2D6 [2] = biological target: T2, human CYP2D6 (Homo sapiens, UniProt P10635); assay: biochemical
human CYP2C19 [3] = biological target: T3, human CYP2C19 (Homo sapiens, UniProt P33261); assay: biochemical
human CYP2C9 [4] = biological target: T4, human CYP2C9 (Homo sapiens, UniProt P11712); details: human
human CYP1A2 [5] = biological target: T1, human CYP1A2; assay: biochemical
human CYP2C19 [6] = biological target: T3, human CYP2C19; details: for CYP2C19 Efficacy (in parenthesis): human
human CYP2C9 [7] = biological target: T4, human CYP2C9; assay: biochemical
human CYP2D6 [8] = biological target: T2, human CYP2D6; details: human
CYP3A4 = CYP3A4 (Homo sapiens, UniProt P08684)
[9] = CYP2D6 IC50 (half-maximal inhibitory concentration)
[10] = CYP2C19 IC50 (half-maximal inhibitory concentration)
[11] = CYP1A2 IC50 (half-maximal inhibitory concentration)
[12] = CYP2C9 IC50 (half-maximal inhibitory concentration)

T4 sequence (P11712 whole entry): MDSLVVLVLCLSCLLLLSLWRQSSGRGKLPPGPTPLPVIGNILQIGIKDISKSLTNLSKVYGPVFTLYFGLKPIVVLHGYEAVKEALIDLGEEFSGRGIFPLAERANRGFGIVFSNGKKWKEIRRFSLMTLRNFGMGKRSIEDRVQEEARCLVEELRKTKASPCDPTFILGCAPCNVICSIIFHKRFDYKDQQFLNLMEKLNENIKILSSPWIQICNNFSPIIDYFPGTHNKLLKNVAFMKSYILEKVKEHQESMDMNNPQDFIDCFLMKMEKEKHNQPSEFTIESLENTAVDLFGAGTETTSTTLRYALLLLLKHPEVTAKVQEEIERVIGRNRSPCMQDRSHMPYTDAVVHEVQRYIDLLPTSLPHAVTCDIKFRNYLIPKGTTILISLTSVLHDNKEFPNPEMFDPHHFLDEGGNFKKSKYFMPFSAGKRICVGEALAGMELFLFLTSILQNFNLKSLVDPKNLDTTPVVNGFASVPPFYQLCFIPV
T3 sequence (P33261 whole entry): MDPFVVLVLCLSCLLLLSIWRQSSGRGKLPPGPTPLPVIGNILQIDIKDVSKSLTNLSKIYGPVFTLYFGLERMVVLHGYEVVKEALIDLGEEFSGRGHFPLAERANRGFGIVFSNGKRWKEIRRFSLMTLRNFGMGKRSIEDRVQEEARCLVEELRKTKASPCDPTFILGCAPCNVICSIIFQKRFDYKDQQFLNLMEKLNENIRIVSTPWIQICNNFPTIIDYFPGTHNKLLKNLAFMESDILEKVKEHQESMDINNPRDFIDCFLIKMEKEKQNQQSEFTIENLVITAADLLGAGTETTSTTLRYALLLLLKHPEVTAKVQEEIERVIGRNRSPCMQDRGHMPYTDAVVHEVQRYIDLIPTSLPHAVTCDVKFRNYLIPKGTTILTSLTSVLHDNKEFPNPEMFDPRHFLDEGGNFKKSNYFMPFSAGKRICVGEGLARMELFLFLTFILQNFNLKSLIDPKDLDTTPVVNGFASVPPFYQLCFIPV
T2 sequence (P10635 whole entry): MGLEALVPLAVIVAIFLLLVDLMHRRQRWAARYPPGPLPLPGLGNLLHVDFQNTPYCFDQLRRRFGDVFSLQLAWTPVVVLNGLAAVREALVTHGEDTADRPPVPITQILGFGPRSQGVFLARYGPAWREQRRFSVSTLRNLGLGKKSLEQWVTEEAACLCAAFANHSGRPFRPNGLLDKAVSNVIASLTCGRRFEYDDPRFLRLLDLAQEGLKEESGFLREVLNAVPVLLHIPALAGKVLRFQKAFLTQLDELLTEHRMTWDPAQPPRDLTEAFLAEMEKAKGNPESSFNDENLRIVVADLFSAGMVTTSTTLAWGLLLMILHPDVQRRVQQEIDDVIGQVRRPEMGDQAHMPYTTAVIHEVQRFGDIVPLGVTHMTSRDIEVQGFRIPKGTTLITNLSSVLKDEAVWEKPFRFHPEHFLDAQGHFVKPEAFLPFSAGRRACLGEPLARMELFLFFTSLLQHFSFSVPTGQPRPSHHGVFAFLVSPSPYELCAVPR
Chain of CYP3A4 (P08684 whole entry): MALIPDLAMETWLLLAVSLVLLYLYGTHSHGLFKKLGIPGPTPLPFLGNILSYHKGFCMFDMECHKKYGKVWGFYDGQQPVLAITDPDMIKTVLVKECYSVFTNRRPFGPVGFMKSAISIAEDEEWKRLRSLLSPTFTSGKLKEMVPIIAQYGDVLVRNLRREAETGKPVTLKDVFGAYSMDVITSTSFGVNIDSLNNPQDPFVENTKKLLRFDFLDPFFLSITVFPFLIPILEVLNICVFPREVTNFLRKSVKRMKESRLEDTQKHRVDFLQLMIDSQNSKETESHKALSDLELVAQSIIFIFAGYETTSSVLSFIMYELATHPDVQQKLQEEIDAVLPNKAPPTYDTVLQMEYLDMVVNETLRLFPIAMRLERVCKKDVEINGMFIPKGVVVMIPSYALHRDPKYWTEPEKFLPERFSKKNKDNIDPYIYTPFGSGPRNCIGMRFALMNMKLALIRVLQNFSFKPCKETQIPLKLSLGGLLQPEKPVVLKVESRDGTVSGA

Structure (SMILES)	CYP1A2 Efficacy (in parenthesis) (human CYP1A2 [1])	IC50 (human CYP2D6 [2]; [9])	IC50 (human CYP2C19 [3]; [10])	CYP2C9 Efficacy (in parenthesis) (human CYP2C9 [4])	IC50 (human CYP1A2 [5]; [11])	CYP2C19 Efficacy (in parenthesis) (human CYP2C19 [6])	IC50 (human CYP2C9 [7]; [12])	CYP2D6 Efficacy (in parenthesis) (human CYP2D6 [8])	IC50 (human CYP2D6 [2])	IC50 (human CYP2C9 [7])	further results
O=C1c2ccccc2C(=O)C1C(=O)C(c1ccccc1)c1ccccc1 [Diphacinone]	28.28 ± 11.08 (-93 ± 7) %	32.3 µM	34.8 µM	0.53 ± 0.74 (-101 ± 4) %	28.3 µM	34.81 ± 11.45 (-80 ± 23) %	0.53 µM	32.29 ± 4.12 (-49 ± 4) %	–	–	IC50 (human CYP2C9 [7]; IC50 CYP2C9 assay): 0.5 µM
CN(C)C(=O)Nc1ccc(Cl)c(Cl)c1 [Diuron]	0.86 ± 0.12 (-103 ± 3) %	42.1 µM	39.5 µM	69.41 ± 26.11 (-48 ± 19) %	0.86 µM	39.45 ± 16.91 (-98 ± 5) %	69.4 µM	42.09 ± 18.16 (-73 ± 17) %	–	–	–
Clc1ccc(C(Cn2ccnc2)OCc2ccc(Sc3ccccc3)cc2)c(Cl)c1 (centres unmarked) [Fenticonazole nitrate]	16.12 ± 1.09 (-89 ± 8) %	–	–	2.99 ± 0.41 (-103 ± 6) %	–	2.65 ± 0.17 (-137 ± 20) %	–	0.37 ± 0.02 (-82 ± 4) %	0.37 ± 0.02 µM	2.99 ± 0.41 µM	IC50 (human CYP2C19 [3]): 2.65 ± 0.17 µM; IC50 (human CYP1A2 [5]): 16.1 ± 1.09 µM
N=C(N)N/N=C/c1c(Cl)cccc1Cl [Guanabenz]	–	–	–	–	–	–	–	–	–	–	AC50 (human CYP2D6 [2]; CYP2D6 AC50 (half-maximal activity concentration)): 13.8 µM; AC50 (human CYP1A2 [5]; CYP1A2 AC50 (half-maximal activity concentration)): 14.4 µM; CYP2C19 AC50 (half-maximal activity concentration) (human CYP2C19 [6]): Inactive; CYP3A4 AC50 (half-maximal activity concentration) (CYP3A4): Inactive; AC50 (human CYP2C9 [7]; CYP2C9 AC50 (half-maximal activity concentration)): 37.7 µM
CC(C)=CCOc1c2occc2cc2ccc(=O)oc12 [Imperatorin]	0.42 ± 0.17 (-97 ± 12) %	4.72 µM	4.36 µM	0.62 ± 0.07 (-96 ± 6) %	0.42 µM	4.36 ± 0.0 (-126 ± 1) %	0.62 µM	4.72 ± 0.31 (-110 ± 6) %	–	–	–
CC(C)[N+](C)(CCC(C(N)=O)(c1ccccc1)c1ccccc1)C(C)C [Isopropamide]	30.41 ± 7.39 (-70 ± 30) %	0.7 µM	35.6 µM	33.31 ± 14 (-72 ± 28) %	30.4 µM	35.59 ± 11.39 (-61 ± 21) %	33.3 µM	0.7 ± 0.32 (-99 ± 8) %	–	–	–
O=C1N(c2ccccc2)c2ccccc2C1(Cc1ccncc1)Cc1ccncc1 [Linopirdine]	24.14 ± 9.56 (-50 ± 8) %	–	–	3.04 ± 0.74 (-95 ± 5) %	–	1.71 ± 1.07 (-136 ± 7) %	–	20.69 ± 9.02 (-61 ± 27) %	20.7 ± 9.02 µM	3.04 ± 0.74 µM	IC50 (human CYP2C19 [3]): 1.71 ± 1.07 µM; IC50 (human CYP1A2 [5]): 24.1 ± 9.56 µM
COC(=O)c1cc(Cl)ccc1[N+](=O)[O-] [Methyl 5-chloro-2-nitrobenzoate]	–	–	–	–	–	–	–	–	–	–	AC50 (human CYP2D6 [2]): 61.4 µM; AC50 (human CYP2C19 [3]): 80 µM; AC50 (human CYP1A2 [5]): 7.13 µM; CYP3A4 AC50 (half-maximal activity concentration) (CYP3A4): Inactive; AC50 (human CYP2C9 [7]): 49.3 µM
CCCN(CCc1cccs1)[C@H]1CCc2c(O)cccc2C1 [Rotigotine]	31.04 ± 3.57 (-46 ± 10) %	–	–	16.12 ± 1.09 (-56 ± 2) %	–	2.55 ± 0.17 (-115 ± 10) %	–	0.4 ± 0.09 (-102 ± 0) %	0.4 ± 0.09 µM	16.1 ± 1.09 µM	AC50 (human CYP2D6 [2]): 0.4 ± 0.09 µM; AC50 (human CYP2C19 [3]): 2.55 ± 0.17 µM; IC50 (human CYP2C19 [3]): 2.55 ± 0.17 µM; AC50 (human CYP1A2 [5]): 31 ± 3.57 µM; IC50 (human CYP1A2 [5]): 31 ± 3.57 µM; AC50 (human CYP2C9 [7]): 16.1 ± 1.09 µM
Clc1ccc(C(Cn2ccnc2)OCc2ccsc2Cl)c(Cl)c1 (centres unmarked) [Tioconazole]	4.61 ± 0.27 (-94 ± 11) %	2.79 µM	0.25 µM	0.21 ± 0.09 (-104 ± 10) %	4.61 µM	0.25 ± 0.09 (-140 ± 3) %	0.21 µM	2.79 ± 0.58 (-109 ± 6) %	–	–	–
Clc1ccc(Nc2nnc(Cc3ccncc3)c3ccccc23)cc1 [Vatalanib]	2.03 ± 0.52 (-97 ± 14) %	–	–	0.79 ± 0.66 (-96 ± 3) %	–	1.1 ± 0.95 (-157 ± 44) %	–	5.98 ± 9.87 (-107 ± 3) %	5.98 µM	0.79 µM	IC50 (human CYP2C19 [3]; CYP2C19 IC50 (half-maximal inhibitory concentration), mean ± standard deviation from three experiments, qHTS): 1.1 ± 0.95 µM; IC50 (human CYP1A2 [5]; CYP1A2 IC50 (half-maximal inhibitory concentration), mean ± standard deviation from three experiments, qHTS): 2.03 ± 0.52 µM
N#C/C(=C1/SC[C@@H](c2ccc(Cl)cc2Cl)S1)n1ccnc1 [luliconazole, reference compound]	0.33 ± 0.09 (-91 ± 7) %	0.22 µM	0.46 µM	0.52 ± 0.12 (-109 ± 5) %	0.33 µM	0.46 ± 0.08 (-137 ± 13) %	0.52 µM	0.22 ± 0.03 (-105 ± 2) %	–	–	–
